According to article PMC4538381, “Activation of Relaxin Family Receptor 1 from Different Mammalian Species by Relaxin Peptide and Small-Molecule Agonist ML290” (Frontiers in Endocrinology, 2015):
Entries after “also recorded” stand apart in the source; their conditions may differ.

What was measured:
human RXFP1 = experiment: CRE-Luc BacMam luciferase assay, human RXFP1; assay type: cell-based; design: key to Activation of RXFP1 receptors: *: Weak; **: intermediate; ***: strong activation of the receptor
Method: (§1) GloResponse™ CRE-luc2P HEK293T cells stably transfected with cAMP response element-driven luciferase (CRE-Luc) reporter (Promega, Madison, WI, USA) were transduced with human, macaque, pig, and mouse RXFP1 expression BacMam vectors according to the manufacturer’s protocol (Invitrogen) and incubated at room temperature for 2 h in the dark with occasional mixing. The volume of the cell culture was adjusted to 1000 cells/μl with DMEM + 10% FBS. Cells (3 μl, 3000 cells) were plated on 1536-well white solid-bottom TC plates and incubated overnight at 37C°, 5% CO2. Four hundred […] Ro 20-1724 (Sigma-Aldrich, St. Louis, MO, USA) in PBS (1 μl) was added in each well. The cells were treated with serial dilutions of either Forskolin (Sigma-Aldrich), ML290 ([5]) or porcine RLN at final concentrations’ range (57 μM–3.5 pM) for Forskolin and ML290, and (8.7 μM–1.8 pM, or 57 ng/μl–0.012 pg/μl] for RLN. After 2 h stimulation at 37°C, 4 μl of detection reagent from Amplite™ Luciferase reporter gene assay kit (AAT Bioquest, Sunnyvale, CA, USA) was added as a mix of 90% Component A, 5% Component C, and 5% Component D, and incubated at room temperature for 5 min. Luminescent signal was measured on Viewlux uHTS Microplate Imager (PerkinElmer, Santa Clara, CA, USA). The data were processed using GraphPad Software (San Diego, CA, USA).

macaque RXFP1 = experiment: CRE-Luc BacMam luciferase assay, macaque RXFP1; assay type: cell-based, rhesus macaque (Macaca mullata); design: key to Activation of RXFP1 receptors: *: Weak; **: intermediate; ***: strong activation of the receptor
Method: as §1

pig RXFP1 = experiment: CRE-Luc BacMam luciferase assay, pig RXFP1; assay type: cell-based, pig (Sus scrofa); design: key to Activation of RXFP1 receptors: *: Weak; **: intermediate; ***: strong activation of the receptor
Method: as §1

mouse RXFP1 = experiment: CRE-Luc BacMam luciferase assay, mouse RXFP1; assay type: cell-based; conditions: CRE-luc HEK293T, 2 h, highest concentrations of ML290 (range 57 μM–3.5 pM)
Method: as §1

GH-RXFP1 = experiment: Direct HTRF cAMP assay, guinea pig/human chimera GH-RXFP1; assay type: cell-based; design: key to Activation of RXFP1 receptors: *: Weak; **: intermediate; ***: strong activation of the receptor
Method: (§2) The human, mouse, macaque, and pig RXFP1 cDNA constructs in baculovirus BacMam mammalian expression vector (Invitrogen, Carlsbad, CA, USA) were synthesized at the Eukaryotic Expression Group-Protein Expression laboratory (NCI, Frederick, MD, USA). The PCR primers for RT-PCR were designed to cover the full-length sequence of the open reading frame (ORF). PCR amplifications were performed with PfuUltra High-Fidelity DNA polymerase (Agilent Technologies, Santa Clara, CA, USA). Guinea pig RXFP1 (G-RXFP1) was amplified from guinea pig ovarian cDNA (Zyagen, San Diego, CA, USA). Rabbit RXFP1 (R1-RXFP1 and R2-RXFP1) cDNAs were amplified from rabbit uterus cDNA (Zyagen). All cloning was performed using the In-Fusion® HD Cloning Kit (Clontech Laboratories, Mountain View, CA, USA). Rabbit and guinea pig RXFP1s were cloned into pCR3.1 mammalian expression vector (Invitrogen). […]
(§3) Direct measurement of cAMP production was performed using the HTRF cAMP HiRange kit (CisBio, Bedford, MA, USA). […] The plates were incubated for 60 min at room temperature, and the signal was read on a FLUOstar Omega (BMG Labtech, Cary, NC, USA) plate reader. cAMP levels were calculated according to the manufacturer’s instructions against a standard curve. […]

R1-RXFP1 and R2-RXFP1 = experiment: Direct HTRF cAMP assay, rabbit R1-RXFP1 and R2-RXFP1; assay type: cell-based, European rabbit (Oryctolagus cuniculus); design: key to Activation of RXFP1 receptors: *: Weak; **: intermediate; ***: strong activation of the receptor
Method: The human, mouse, macaque, and pig RXFP1 cDNA constructs in baculovirus BacMam mammalian expression vector (Invitrogen, Carlsbad, CA, USA) were synthesized at the Eukaryotic Expression Group-Protein Expression laboratory (NCI, Frederick, MD, USA). The PCR primers for RT-PCR were designed to cover the full-length sequence of the open reading frame (ORF). PCR amplifications were performed with PfuUltra High-Fidelity DNA polymerase (Agilent Technologies, Santa Clara, CA, USA). Guinea pig RXFP1 (G-RXFP1) was amplified from guinea pig ovarian cDNA (Zyagen, San Diego, CA, USA). Rabbit RXFP1 (R1-RXFP1 and R2-RXFP1) cDNAs were amplified from rabbit uterus cDNA (Zyagen). All cloning was performed using the In-Fusion® HD Cloning Kit (Clontech Laboratories, Mountain View, CA, USA). Rabbit and guinea pig RXFP1s were cloned into pCR3.1 mammalian expression vector (Invitrogen). In order to study RXFP1 surface expression, rabbit cDNAs were cloned into pcDNA3.1™/Zeo+ mammalian expression vector (Invitrogen), which contained an N-terminal FLAG-tag and a bovine prolactin signal sequence (3). […] To make chimeric clones, the human, guinea pig, and rabbit plasmid were used as templates to produce PCR amplicons, which were then used for overlapping PCR and subsequent cloning with the In-Fusion kit. The chimeric guinea pig/human GH-RXFP1 construct contains guinea pig RXFP1 cDNA (G-RXFP1, 1–1499 bp) encoding the ectodomain, TM1, TM2, and part of TM3 (amino acids 1–499 of G-RXFP1), and human RXFP1 (hRXFP1, 1509–2274 bp) encoding TM3 to the C-terminal tail of the receptor (amino acids 503–757 of hRXFP1) (Figure 1A). The recombinant chimeric human–rabbit HR-RXFP1 was made with the 5′-part of the hRXFP1 sequence (1–972 bp, LDLa-LRR9, 1–324 aa), with the remainder being the rabbit RXFP1 sequence (973–2277 bp, LRR9-C-terminal tail, 325–759 aa) (Figure 1A). The recombinant chimeric rabbit–human R1H-RXFP1 or R2H-RXFP1 contains the N-terminal rabbit RXFP1 sequence (1–972 bp for R1-RXFP1 or 975 bp for R2-RXFP1), with the remaining sequence being hRXFP1 (973–2274) (Figure 1A). R1- and R2-RXFP1 denote two variants of rabbit RXFP1 cDNA. All numbers correspond to the full-length cDNAs with the first nucleotide of the ORF.
HEK293T cell transient transfections were performed using Lipofectamine 2000 transfection reagent (Life Technologies, Grand Island, NY, USA) according to the manufacturer’s instructions. Cells transiently expressing the RXFP1 receptors were used within 48 h of transfection. Each construct was tested at least three times. For cell-conditioned media stimulation, HEK293T cells were transfected with the rabbit RLN construct (SQ10) or an empty pCR3.1 vector, and cells were cultured for 24 h. The media was used to stimulate HEK293T cells transfected with the RXFP1 receptors.
Direct measurement of cAMP production was performed using the HTRF cAMP HiRange kit (CisBio, Bedford, MA, USA). HEK293T cells transiently transfected with different RXFP1 receptors were stimulated with various concentrations of RLN peptides or ML290 for 60 min at 37°C, 5% CO2, after which, two HTRF detection reagents (diluted according to assay kit directions in HTRF lysis buffer) were added. The plates were incubated for 60 min at room temperature, and the signal was read on a FLUOstar Omega (BMG Labtech, Cary, NC, USA) plate reader. cAMP levels were calculated according to the manufacturer’s instructions against a standard curve. Statistical processing of the data was performed using GraphPad Prism software.

HR-RXFP1 = experiment: Direct HTRF cAMP assay, human/rabbit chimera HR-RXFP1; assay type: cell-based; conditions: transiently transfected HEK293T, % of hRXFP1 activation by 10 nM RLN
Method: as §2, §3

R1H-RXFP1 and R2H-RXFP1 = experiment: Direct HTRF cAMP assay, rabbit/human chimeras R1H- and R2H-RXFP1; assay type: cell-based; design: key to Activation of RXFP1 receptors: *: Weak; **: intermediate; ***: strong activation of the receptor
Method: as §2, §3

R1-RXFP1 = experiment: Indirect CRE-β-gal reporter cAMP assay, rabbit R1-RXFP1; assay type: cell-based, European rabbit (Oryctolagus cuniculus); conditions: 6 h at 37°C, % of 5 μM Forskolin response
Method: For the indirect cAMP assay, changes in cAMP signaling were measured by co-transfection of receptors with a CRE-β-galactosidase (CRE-β-gal) reporter construct ([11]). Cells were stimulated for 6 h at 37°C with RLN peptides or ML290 at various concentrations. A non-linear regression sigmoidal dose–response curve was then produced using GraphPad Prism. All experiments were conducted at least three times with three to four replicates each time.

mouse RXFP1 receptor = conditions: direct cAMP HTRF assay, ref [5]; cited from earlier work
[1] = tested on: modified mouse receptor with humanized ECL3; conditions: ECL3 amino acids mutated, ref [5]; cited from earlier work
Excerpt: The rabbit and guinea pig receptors provide new structural templates for analysis of RLN and ML290 activation of RXFP1. […] Indeed, it was shown that primary binding of RLN to RXFP1 involve sites within LRR4, 5, 6, and 8 ([2]). In contrast, the 7TM region of RXFP1, which is the site of allosteric small-molecule agonist binding, is functional in rabbits. The opposite was true for guinea pig RXFP1: despite having the same ECL3 sequence as pig ...

## CC(C)Oc1ccccc1C(=O)Nc1ccccc1C(=O)Nc1cccc(S(=O)(=O)C(F)(F)F)c1 [ML290]
Human RXFP1; Human receptor, summary grade, HEK293T cells
  Activation of RXFP1 receptors: ***
Human RXFP1; human RXFP1, CRE-luc HEK293T, 2 h, ML290 57 μM–3.5 pM
  cAMP response (luciferase activity): responded strongly to ML290 stimulation
Macaque RXFP1; Macaque receptor, summary grade, HEK293T cells
  Activation of RXFP1 receptors: ***
Macaque RXFP1; macaque RXFP1, CRE-luc HEK293T, 2 h, ML290 57 μM–3.5 pM, RLN 8.7 μM–1.8 pM
  cAMP response (luciferase activity): responded to relaxin and ML290 treatment; also recorded: responded strongly to ML290 stimulation; also recorded: fully activated by RLN and ML290
Pig RXFP1; Pig receptor, summary grade, HEK293T cells
  Activation of RXFP1 receptors: ***
Pig RXFP1; pig RXFP1, CRE-luc HEK293T, 2 h, ML290 57 μM–3.5 pM, RLN 8.7 μM–1.8 pM
  cAMP response (luciferase activity): responded to relaxin and ML290 treatment; also recorded: responded strongly to ML290 stimulation; also recorded: fully activated by RLN and ML290
Mouse RXFP1
  cAMP response (luciferase activity): significant increase in luciferase activity; also recorded: activation of the CRE-reporter was observed with high-dose ML290 treatment on the mouse receptor
GH-RXFP1; GH-RXFP1, transiently transfected HEK293T, HTRF, 60 min at 37°C, % of 10 μM Forskolin response
  cAMP response: only partially restored ML290 activation; also recorded: ML290 responsiveness, albeit to a much lower level than in hRXFP1 (p < 0.001); also recorded: efficacy of ML290 stimulation was improved, however, it was still lower than in hRXFP1-transfected cells
GH-RXFP1; Guinea pig/human chimera, summary grade, HEK293T cells
  Activation of RXFP1 receptors: *
R1-RXFP1 and R2-RXFP1; FLAG-tagged R1- and R2-RXFP1, HTRF, 60 min, % of hRXFP1 activation by 10 nM RLN
  cAMP response, FLAG-tagged receptors: produced a cAMP increase in cells transfected with both rabbit receptors, albeit with lesser efficacy than hRXFP1
R1-RXFP1 and R2-RXFP1; R1- and R2-RXFP1, 10 nM relaxin peptides or 5 μM ML290, HTRF
  statistical significance of response versus hRXFP1: statistically significant compared to hRXFP1, ***p < 0.001
R1-RXFP1 and R2-RXFP1; R1- and R2-RXFP1, 5 μM ML290, HTRF, transiently transfected HEK293T
  cAMP response to 5 μM ML290: responded to 5 μM of ML290
R1-RXFP1 and R2-RXFP1; R1-RXFP1 and R2-RXFP1, transiently transfected HEK293T, data not shown
  cAMP response: generated an increase in cAMP
R1-RXFP1 and R2-RXFP1; Rabbit 1 and 2, summary grade, HEK293T cells
  Activation of RXFP1 receptors: **
R1-RXFP1 and R2-RXFP1; rabbit RXFP1 variants, cAMP production, abstract/discussion
  activation of rabbit RXFP1 (summary): activated by ML290
HR-RXFP1
  cAMP response: all three receptors respond to ML290
R1H-RXFP1 and R2H-RXFP1; R1H- and R2H-RXFP1, HTRF, transiently transfected HEK293T, % of hRXFP1 activation by 10 nM RLN
  cAMP response: the level of activation of R1H- and R2H-RXFP1 was higher than that of R1-, R2-, or HR-RXFP1-transfected cells
R1H-RXFP1 and R2H-RXFP1; Rabbit 1(2)/human chimera, summary grade, HEK293T cells
  Activation of RXFP1 receptors: **
R1-RXFP1
  cAMP response (ML290), CRE-β-gal: comparable to hRXFP1
Mouse RXFP1 receptor
  activation of mouse RXFP1 (cAMP): does not activate the mouse receptor; also recorded: did not see an increase of cAMP; also recorded: no activation being seen in the direct HTRF cAMP assay; also recorded: did not activate the mouse RXFP1 receptor
[1]
  activation of mouse receptor with humanized ECL3: activated by ML290
